As usually defined, the IC50 is the concentration needed to halve the response being measured.

9 molecules from patent US12545673B2, “Imidazopyridine derivative and pharmaceutical composition comprising same as active ingredient” (TSD LIFE SCIENCES CO., LTD., priority 2019, dated 2026) can be followed below.

The structures appear in SMILES notation. Like-named read-outs stand apart in the source and are kept apart here.

One experiment has as its target LRRK2 mutant (G2019S) (Homo sapiens (Human), UniProt Q5S007, G2019S). Nature of the experiment: Evaluation of inhibitory activity against LRRK2 (affinity bead competition binding), G2019S mutant. As to conditions: read-out: Residual active values (%) LRRK2(G2019S); for remaining binding at 0.1 µM: 100 nM; for remaining binding at 0.5 µM: 500 nM. As for the experimental part: (§1) In order to identify the activity inhibitory effect on the LRRK2 wild-type and LRRK2 mutant (G2019S) kinase of the example compound according to the present disclosure, BL21-derived E. coli bacteria (E. coli) were cultured in a 24-well plate until the growth phase (log phase). After culturing, T7 phage tagged with LRRK2 wild-type or LRRK2 mutant (G2019S) was used to infect the multiplicity of infection (MOI) at 0.4. Thereafter, the E. coli bacteria were stirred at 32° C. for 90 to 150 minutes to allow dissolution. The lysate of E. coli bacteria was centrifuged (6,000×g) and filtered (0.2 μm), and the obtained tagged T7 phage […] a DNA-tagged kinase protein (LRRK2 or LRRK2 G2019S) was obtained.
(§2) After blocking the biotinylated ligand with extra biotin, it is washed with Pierce's buffer, SeaBlock (1% BSA, 0.05% Tween 20, 1 mM DTT) to remove unbound ligand and reduce non-specific binding.
(§3) The compound was prepared at a concentration of 40× in 100% DMSO and used after dilution, and all binding reactions were performed in a final volume of 0.02 ml in a 384-well plate.
(§4) The activity inhibitory effect on the LRRK2 wild-type and LRRK2 mutant (G2019S) kinases of the example compounds according to the present disclosure was measured and shown in Table 10 below.

Another experiment has as its target LRRK2 wild-type (Homo sapiens (Human), UniProt Q5S007). The experiment is described as follows: Evaluation of inhibitory activity against LRRK2 (affinity bead competition binding), wild-type. As to conditions: read-out: Residual active values (%) LRRK2; for remaining binding at 0.1 µM: 100 nM; for remaining binding at 0.5 µM: 500 nM. Here is the method: as §1, §2, §3, §4

Experiment [1] relates to gastric cancer cell line AGS. The experiment is described as follows: Cancer cell proliferation inhibitory activity evaluation 2 (CCK-8), AGS. In kind it is cell-based. As to conditions: Homo sapiens, read-out: Cancer cell proliferation inhibitory activity AGS.
Experiment [2] concerns acute lymphoblastic leukemia cell line Jurkat. Nature of the experiment: Cancer cell proliferation inhibitory activity evaluation 2 (CCK-8), Jurkat. In kind it is cell-based. As to conditions: Homo sapiens.
Experiment [3] has as its system acute myeloid leukemia cell line U937. Nature of the experiment: Cancer cell proliferation inhibitory activity evaluation 1 (CCK-8), U937. The experiment is classed as cell-based. The note with it: Homo sapiens, read-out: Cancer cell proliferation inhibitory activity U937. As for the experimental part:
(§5) In order to identify whether the compound has anticancer activity, the human breast cancer cell line MDA-MB-231, the colorectal cancer cell line HT-29, the acute myeloid leukemia cell line U937, and the chronic myeloid leukemia cell line K562 were used. The cell line was cultured using RPMI-1640 medium containing 10% fetal bovine serum. Welgene products were used as the medium, and hyclone products were used for fetal bovine serum, and 1% of antibiotics for cell culture from Gibco were used as the culture medium.

Experiment [4] has as its system human breast cancer cell line MDA-MB-231. The experiment is described as follows: Cancer cell proliferation inhibitory activity evaluation 1 (CCK-8), MDA-MB-231. In kind it is cell-based. Here is the method: as §5
Experiment [5] concerns acute myeloid leukemia cell line U937. The experiment is described as follows: Cancer cell proliferation inhibitory activity evaluation 2 (CCK-8), U937. In kind it is cell-based. As to conditions: Homo sapiens, read-out: Cancer cell proliferation inhibitory activity U937.
Experiment [6] deals with chronic myeloid leukemia cell line K562. Nature of the experiment: Cancer cell proliferation inhibitory activity evaluation 1 (CCK-8), K562. In kind it is cell-based. The note with it: Homo sapiens, read-out: Cancer cell proliferation inhibitory activity K562. Here is the method:
as §5

The next experiment concerns the target MLK3 (Homo sapiens (Human), UniProt Q16584). Nature of the experiment: Evaluation of inhibitory activity of enzyme units, MLK3 ([γ-33P]-ATP filter assay). As to conditions: read-out: IC50(nM) MLK3.
Experiment [7] relates to colorectal cancer cell line HT-29. The experiment is described as follows: Cancer cell proliferation inhibitory activity evaluation 1 (CCK-8), HT-29. In kind it is cell-based. As to conditions: Homo sapiens, read-out: Cancer cell proliferation inhibitory activity HT29. As for the experimental part:
as §5

The subject of experiment [8] is human lung cancer cell line A549. The experiment is described as follows: Cancer cell proliferation inhibitory activity evaluation 2 (CCK-8), A549. In kind it is cell-based. Here is the method: (§6) In order to identify whether the compounds have anticancer activity, the acute myeloid leukemia cell line U937, the acute lymphoblastic leukemia cell line Jurkat, the gastric cancer cell lines AGS, […], and the human lung cancer cell line A549 were used. The cell line was cultured using RPMI-1640 medium (U937, Jurkat, AGS, A549) or DMEM (Hs746T) medium containing 10% fetal bovine serum. Welgene products were used as the medium, and hyclone products were used for fetal bovine serum, and 1% of antibiotics for cell culture from Gibco were used as the culture medium.

In experiment [9] the test system is gastric cancer cell line Hs746T. Nature of the experiment: Cancer cell proliferation inhibitory activity evaluation 2 (CCK-8), Hs746T. In kind it is cell-based. As to conditions: Homo sapiens. As for the experimental part:
as §6

The target of a further experiment is MLK1 (Homo sapiens (Human), UniProt P80192). Nature of the experiment: Evaluation of inhibitory activity of enzyme units, MLK1 ([γ-33P]-ATP filter assay). In kind it is biochemical.
Where [10] appears, read: 72 h, read-out: Cancer cell proliferation inhibitory activity Jurkat.
Setting [11] is: 10 μM, 72 hours, CCK-8, read-out: Cancer cell proliferation inhibitory activity Jurkat.
The mark [12] stands for this setting: U-937, 10 μM, 72 hours, CCK-8 (Table 2).
The mark [13] stands for this setting: MDA-MB-231, 10 μM, 72 hours, CCK-8, read-out: Cancer cell proliferation inhibitory activity MDAMB231.
[14] abbreviates: U-937, 10 μM, 72 hours, CCK-8 (Table 3).
[15] abbreviates: A549, 10 μM, 72 hours, CCK-8, read-out: Cancer cell proliferation inhibitory activity A549.
[16] abbreviates: 10 μM, 72 hours, CCK-8, read-out: Cancer cell proliferation inhibitory activity Hs746T.
[17] abbreviates: A549, 72 h, read-out: Cancer cell proliferation inhibitory activity A549.
Setting [18] is: 72 h, read-out: Cancer cell proliferation inhibitory activity Hs746T.

Sequence of LRRK2 wild-type (Q5S007 whole entry, looked up): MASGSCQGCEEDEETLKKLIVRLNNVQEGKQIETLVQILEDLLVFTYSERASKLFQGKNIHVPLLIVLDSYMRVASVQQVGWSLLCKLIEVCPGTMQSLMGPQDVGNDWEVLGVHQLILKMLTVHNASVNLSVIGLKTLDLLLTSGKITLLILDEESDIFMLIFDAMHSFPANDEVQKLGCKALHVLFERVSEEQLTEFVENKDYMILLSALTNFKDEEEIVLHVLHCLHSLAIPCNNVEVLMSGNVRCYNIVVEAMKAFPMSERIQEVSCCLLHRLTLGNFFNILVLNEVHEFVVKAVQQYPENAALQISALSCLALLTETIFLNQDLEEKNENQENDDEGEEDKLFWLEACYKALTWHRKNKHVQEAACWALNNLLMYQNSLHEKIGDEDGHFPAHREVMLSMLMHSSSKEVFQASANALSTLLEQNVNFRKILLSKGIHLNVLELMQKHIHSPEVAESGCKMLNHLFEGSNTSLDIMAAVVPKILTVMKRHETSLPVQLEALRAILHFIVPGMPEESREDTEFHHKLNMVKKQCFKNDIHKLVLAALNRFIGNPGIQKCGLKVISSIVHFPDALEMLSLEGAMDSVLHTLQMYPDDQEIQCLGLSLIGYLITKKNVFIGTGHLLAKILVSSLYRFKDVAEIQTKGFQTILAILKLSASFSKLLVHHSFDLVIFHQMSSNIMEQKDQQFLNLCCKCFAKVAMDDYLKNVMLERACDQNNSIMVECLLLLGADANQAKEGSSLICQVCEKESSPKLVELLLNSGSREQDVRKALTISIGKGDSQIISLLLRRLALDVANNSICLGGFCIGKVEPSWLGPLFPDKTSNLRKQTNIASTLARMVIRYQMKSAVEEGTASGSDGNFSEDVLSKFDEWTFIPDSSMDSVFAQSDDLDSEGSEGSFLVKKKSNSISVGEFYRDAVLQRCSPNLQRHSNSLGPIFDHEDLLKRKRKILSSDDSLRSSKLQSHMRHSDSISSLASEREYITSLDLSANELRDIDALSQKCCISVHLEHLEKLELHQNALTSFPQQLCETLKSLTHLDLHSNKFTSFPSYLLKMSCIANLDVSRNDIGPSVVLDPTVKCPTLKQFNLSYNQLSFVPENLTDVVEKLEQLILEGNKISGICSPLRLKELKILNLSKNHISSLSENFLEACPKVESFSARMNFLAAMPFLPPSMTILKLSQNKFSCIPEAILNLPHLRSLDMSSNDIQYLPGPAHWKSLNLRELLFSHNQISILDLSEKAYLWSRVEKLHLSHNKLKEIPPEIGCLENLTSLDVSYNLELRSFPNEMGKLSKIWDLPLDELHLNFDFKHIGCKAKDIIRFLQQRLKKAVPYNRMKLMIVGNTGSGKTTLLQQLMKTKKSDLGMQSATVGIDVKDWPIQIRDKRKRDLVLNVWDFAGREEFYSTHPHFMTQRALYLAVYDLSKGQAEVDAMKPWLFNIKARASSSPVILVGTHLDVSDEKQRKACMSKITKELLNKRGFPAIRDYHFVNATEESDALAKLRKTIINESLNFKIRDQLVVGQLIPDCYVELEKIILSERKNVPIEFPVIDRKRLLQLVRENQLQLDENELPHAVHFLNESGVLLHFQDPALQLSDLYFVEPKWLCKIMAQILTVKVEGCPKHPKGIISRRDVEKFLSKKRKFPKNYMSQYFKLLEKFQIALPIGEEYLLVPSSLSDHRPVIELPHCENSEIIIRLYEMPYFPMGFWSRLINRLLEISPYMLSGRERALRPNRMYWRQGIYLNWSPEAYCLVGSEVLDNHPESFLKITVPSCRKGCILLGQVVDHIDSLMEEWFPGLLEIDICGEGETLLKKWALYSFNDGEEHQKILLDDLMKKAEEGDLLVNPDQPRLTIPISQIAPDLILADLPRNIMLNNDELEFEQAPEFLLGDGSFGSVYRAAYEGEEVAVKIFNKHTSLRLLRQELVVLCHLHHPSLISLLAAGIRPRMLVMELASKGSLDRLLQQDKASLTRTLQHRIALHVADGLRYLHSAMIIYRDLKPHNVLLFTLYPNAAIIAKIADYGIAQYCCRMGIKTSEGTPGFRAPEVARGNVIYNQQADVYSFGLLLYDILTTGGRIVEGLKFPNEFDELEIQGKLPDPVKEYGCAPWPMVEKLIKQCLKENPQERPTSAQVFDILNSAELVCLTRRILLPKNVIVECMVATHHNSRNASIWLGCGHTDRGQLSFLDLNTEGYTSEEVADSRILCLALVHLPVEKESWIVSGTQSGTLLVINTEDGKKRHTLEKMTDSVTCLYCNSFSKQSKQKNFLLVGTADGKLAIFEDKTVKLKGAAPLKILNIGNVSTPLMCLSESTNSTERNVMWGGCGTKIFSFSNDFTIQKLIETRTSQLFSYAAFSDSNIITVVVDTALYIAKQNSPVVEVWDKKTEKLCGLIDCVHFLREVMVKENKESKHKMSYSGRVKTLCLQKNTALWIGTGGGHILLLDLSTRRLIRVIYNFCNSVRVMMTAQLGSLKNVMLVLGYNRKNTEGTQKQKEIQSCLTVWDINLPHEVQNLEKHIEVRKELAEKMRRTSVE
Sequence of LRRK2 mutant (G2019S) (Q5S007 whole entry G2019S, looked up): as the sequence (Q5S007 whole entry, looked up) above, with G2019S counted along it
Sequence of MLK3 (Q16584 whole entry, looked up): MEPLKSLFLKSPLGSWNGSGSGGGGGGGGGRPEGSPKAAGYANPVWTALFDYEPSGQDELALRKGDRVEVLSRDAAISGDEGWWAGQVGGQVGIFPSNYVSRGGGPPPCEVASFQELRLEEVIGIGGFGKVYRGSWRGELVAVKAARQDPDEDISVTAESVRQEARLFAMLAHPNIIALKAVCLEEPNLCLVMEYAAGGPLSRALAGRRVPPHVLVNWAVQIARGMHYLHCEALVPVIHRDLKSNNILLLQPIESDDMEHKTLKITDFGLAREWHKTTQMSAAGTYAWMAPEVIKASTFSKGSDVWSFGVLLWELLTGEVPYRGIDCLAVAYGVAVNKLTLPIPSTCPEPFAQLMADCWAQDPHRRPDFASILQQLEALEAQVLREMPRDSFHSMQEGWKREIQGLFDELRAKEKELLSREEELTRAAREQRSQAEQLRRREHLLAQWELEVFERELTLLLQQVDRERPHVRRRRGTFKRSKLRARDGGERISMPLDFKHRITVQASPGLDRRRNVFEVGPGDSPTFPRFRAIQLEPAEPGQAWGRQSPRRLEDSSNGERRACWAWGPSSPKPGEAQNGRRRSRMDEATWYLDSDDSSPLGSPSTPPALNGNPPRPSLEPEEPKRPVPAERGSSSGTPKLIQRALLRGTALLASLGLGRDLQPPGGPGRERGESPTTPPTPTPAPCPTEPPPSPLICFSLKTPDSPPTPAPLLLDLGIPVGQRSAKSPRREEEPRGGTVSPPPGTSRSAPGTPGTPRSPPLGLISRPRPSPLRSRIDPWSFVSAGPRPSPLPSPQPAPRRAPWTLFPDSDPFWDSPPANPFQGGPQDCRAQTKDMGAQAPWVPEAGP
Sequence of MLK1 (P80192 whole entry, looked up): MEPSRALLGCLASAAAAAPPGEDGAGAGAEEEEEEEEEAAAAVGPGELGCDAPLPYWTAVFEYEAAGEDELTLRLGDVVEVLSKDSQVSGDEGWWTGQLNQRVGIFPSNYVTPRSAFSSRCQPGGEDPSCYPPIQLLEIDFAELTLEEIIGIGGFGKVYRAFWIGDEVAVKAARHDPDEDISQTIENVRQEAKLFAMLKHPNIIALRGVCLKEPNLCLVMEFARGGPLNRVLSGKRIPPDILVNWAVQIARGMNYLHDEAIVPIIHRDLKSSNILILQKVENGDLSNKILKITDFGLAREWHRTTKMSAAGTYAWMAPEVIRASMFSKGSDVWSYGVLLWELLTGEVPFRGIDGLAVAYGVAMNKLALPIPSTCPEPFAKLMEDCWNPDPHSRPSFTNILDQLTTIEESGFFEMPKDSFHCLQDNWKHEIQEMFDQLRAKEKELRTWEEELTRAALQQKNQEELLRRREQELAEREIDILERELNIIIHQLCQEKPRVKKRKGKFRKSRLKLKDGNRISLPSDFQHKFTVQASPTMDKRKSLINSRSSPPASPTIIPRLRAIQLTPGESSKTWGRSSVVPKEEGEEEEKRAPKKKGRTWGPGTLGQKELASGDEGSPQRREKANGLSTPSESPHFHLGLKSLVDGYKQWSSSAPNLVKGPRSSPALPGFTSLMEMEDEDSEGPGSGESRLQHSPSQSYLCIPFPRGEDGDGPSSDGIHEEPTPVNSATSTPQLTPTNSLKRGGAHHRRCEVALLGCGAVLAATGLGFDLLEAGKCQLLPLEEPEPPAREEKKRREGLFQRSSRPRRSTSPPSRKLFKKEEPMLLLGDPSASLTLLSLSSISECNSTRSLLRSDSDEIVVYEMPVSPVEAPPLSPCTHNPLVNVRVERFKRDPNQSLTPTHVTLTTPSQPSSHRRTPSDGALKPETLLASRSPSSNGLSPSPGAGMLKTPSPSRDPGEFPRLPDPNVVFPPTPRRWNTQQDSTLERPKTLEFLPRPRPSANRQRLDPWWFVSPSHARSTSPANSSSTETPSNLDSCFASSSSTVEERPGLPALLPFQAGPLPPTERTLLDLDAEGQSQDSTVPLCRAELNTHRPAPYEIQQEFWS

Consider `CCS(=O)(=O)N1CC[C@H](Nc2c(Cl)cnc3nc(-c4cc(C)n(-c5cccc(C(=O)N6CCOCC6)c5)c4C)[nH]c23)C1` [Example 54, (S)-(3-(3-(6-chloro-7-((1-(ethylsulfonyl)pyrrolidine-3-yl)amino)-1H-imidazo[4,5-b]pyridine-2-yl)-2,5-dimethyl-1H-pyrrol-1-yl)phenyl) (morpholino) methanone], for which, on LRRK2 mutant (G2019S), the remaining binding at 0.1 µM was 6.3% and the remaining binding at 0.5 µM amounted to 0.4%. Besides, at LRRK2 wild-type, the remaining binding at 0.1 µM is 24% and the remaining binding at 0.5 µM is 4.1%.
Regarding `CCS(=O)(=O)N1CC[C@H](Nc2c(Br)cnc3[nH]c(-c4cc(C)n(-c5c(Cl)cccc5Cl)c4C)nc23)C1` [Example 13, (S)-6-bromo-2-(1-(2,6-dichlorophenyl)-2,5-dimethyl-1H-pyrrol-3-yl)-N-(1-(ethylsulfonyl)pyrrolidine-3-yl)-3H-imidazo[4,5-b]pyridine-7-amine], the inhibition at 10 µM was > 50% in experiment [1] (72 h); > 50% in experiment [2] (setting [10]); > 50% in experiment [3] (U-937, 72 h); 10 to 50% in [4] (MDA-MB-231, 72 h, read-out: Cancer cell proliferation inhibitory activity MDAMB231); 10 to 50% in [5] (U-937, 72 h); 10 to 50% in [6] (K562, 72 h). The inhibition at 10 µM in [7] (HT-29, 72 h) lay in the range of 10 to 50%. The IC50 at MLK3 worked out at 7 nM.
On to `Cc1ccc(NS(C)(=O)=O)cc1-n1c(C)cc(-c2nc3c(Nc4cccc(S(N)(=O)=O)c4)c(Br)cnc3[nH]2)c1C` [Example 33, 3-((6-bromo-2-(2,5-dimethyl-1-(2-methyl-5-(methylsulfonamido)phenyl)-1H-pyrrol-3-yl)-3H-imidazo[4,5-b]pyridine-7-yl)amino)benzenesulfonamide], for which the inhibition at 10 µM in experiment [1] (10 μM, 72 hours, CCK-8) is 10 to 50%; in [2] (setting [11]) it was 10 to 50%; in [3] (setting [12]), 10 to 50%; in experiment [4] (setting [13]), 10 to 50%; in experiment [5] (setting [14]), < 10%; in experiment [6] (K562, 10 μM, 72 hours, CCK-8), < 10%. Further, the inhibition at 10 µM in [7] (HT-29, 10 μM, 72 hours, CCK-8) is < 10%. In addition, the IC50 on MLK3 came to 38 nM.
Turning to `Cc1cc(-c2nc3c(Nc4cccc(S(N)(=O)=O)c4)c(Br)cnc3[nH]2)c(C)n1-c1c(Cl)cccc1Cl` [Example 26, 3-((6-bromo-2-(1-(2,6-dichlorophenyl)-2,5-dimethyl-1H-pyrrol-3-yl)-3H-imidazo[4,5-b]pyridine-7-yl)amino)benzenesulfonamide], the inhibition at 10 µM in experiment [1] (10 μM, 72 hours, CCK-8) was 10 to 50%; in [2] (setting [11]), 10 to 50%; in experiment [3] (setting [12]) it was 10 to 50%; in experiment [4] (setting [13]) it was 10 to 50%; in experiment [5] (setting [14]) it was 10 to 50%; in [6] (K562, 10 μM, 72 hours, CCK-8), < 10%. Further, the inhibition at 10 µM in [7] (HT-29, 10 μM, 72 hours, CCK-8) is 10 to 50%. Further, the IC50 on MLK3 turned out to be 19 nM.
For the molecule `CCS(=O)(=O)N1CC[C@H](Nc2c(Br)cnc3[nH]c(-c4cc(C)n(-c5ccc(C(=O)N6CCOCC6)cc5C)c4C)nc23)C1` [Example 98, (4-(3-(6-bromo-7-(((S)-1-(ethylsulfonyl)pyrrolidine-3-yl)amino)-3H-imidazo[4,5-b]pyridine-2-yl)-2,5-dimethyl-1H-pyrrol-1-yl)-3-methylphenyl) (morpholino) methanone], the inhibition at 10 µM is > 50% in experiment [1] (10 μM, 72 hours, CCK-8); 10 to 50% in experiment [8] (setting [15]); > 50% in experiment [2] (setting [11]); > 50% in [5] (setting [14]); > 50% in experiment [9] (setting [16]). For the same molecule, the remaining binding at 0.1 µM at LRRK2 mutant (G2019S) is 8.2%; at LRRK2 wild-type, 18%. The remaining binding at 0.5 µM at LRRK2 mutant (G2019S) turned out to be 1%; at LRRK2 wild-type, 3.5%.
`Cc1ccc(C(=O)N2CCOCC2)cc1-n1c(C)cc(-c2nc3ncc(Br)c(Nc4cccc(S(N)(=O)=O)c4)c3[nH]2)c1C` [Example 94, 3-((6-bromo-2-(2,5-dimethyl-1-(2-methyl-5-(morpholine-4-carbonyl)phenyl)-1H-pyrrol-3-yl)-1H-imidazo[4,5-b]pyridine-7-yl)amino)benzenesulfonamide]: the inhibition at 10 µM was 10 to 50% in experiment [1] (10 μM, 72 hours, CCK-8); < 10% in experiment [8] (setting [15]); 10 to 50% in experiment [2] (setting [11]); 10 to 50% in experiment [5] (setting [14]); > 50% in [9] (setting [16]). In addition, the remaining binding at 0.1 µM at LRRK2 mutant (G2019S) stood at 59%; on LRRK2 wild-type, 70%. Further, the results for the remaining binding at 0.5 µM on LRRK2 mutant (G2019S) and at LRRK2 wild-type were 16% and 40%, respectively. The values for the IC50 at MLK3 and at MLK1 were 73 nM and 52 nM, respectively.
With `CCS(=O)(=O)N1CC[C@H](Nc2c(Br)cnc3nc(-c4cc(C)n(-c5ccc(NC(=O)CN6CCOCC6)cc5C)c4C)[nH]c23)C1` [Example 77, N—(4-(3-(6-bromo-7-(((S)-1-(ethylsulfony)pyrolidine-3-yl)amino)-1H-imidazo[4,5-b]pyridine-2-yl)-2,5-dimethyl-1H-pyrrol-1-yl)-3-methylphenyl)-2-morpholinoacetamide], the inhibition at 10 µM was > 50% in experiment [1] (10 μM, 72 hours, CCK-8); 10 to 50% in experiment [8] (setting [15]); > 50% in experiment [2] (setting [11]); > 50% in experiment [5] (setting [14]); 10 to 50% in experiment [9] (setting [16]). For the same molecule, the IC50 on MLK3 was 7 nM; against MLK1, 19 nM.
Consider `CCS(=O)(=O)N1CC[C@H](Nc2c(Br)cnc3[nH]c(-c4cc(C)n(-c5cccc(C(=O)NCCN6CCOCC6)c5)c4C)nc23)C1` [Example 69, (S)-3-(3-(6-bromo-7-((1-(ethylsulfonyl)pyrrolidine-3-yl)amino)-3H-imidazo[4,5-b]pyridine-2-yl)-2,5-dimethyl-1H-pyrrol-1-yl)-N-(2-morpholinoethyl)benzamide], for which the inhibition at 10 µM in [1] (72 h) was > 50%; in experiment [8] (setting [17]) it was 10 to 50%; in experiment [2] (setting [10]), > 50%; in experiment [5] (U-937, 72 h) it was > 50%; in experiment [9] (setting [18]), 10 to 50%. In addition, the IC50 on MLK3 turned out to be 13 nM; against MLK1, 22 nM.
Consider `CCS(=O)(=O)N1CC[C@H](Nc2c(Br)cnc3nc(-c4cc(C)n(-c5cc(C(=O)N6CCOCC6)ccc5C)c4C)[nH]c23)C1` [Example 91, (3-(3-(6-bromo-7-(((S)-1-(ethylsulfonyl)pyrrolidine-3-yl)amino)-1H-imidazo[4,5-b]pyridine-2-yl)-2,5-dimethyl-1H-pyrrol-1-yl)-4-methylphenyl) (morpholino) methanone], for which the inhibition at 10 µM in experiment [1] (72 h) is > 50%; in experiment [8] (setting [17]), > 50%; in experiment [2] (setting [10]), > 50%; in [5] (U-937, 72 h), > 50%; in experiment [9] (setting [18]) it was > 50%. Also, the IC50 on MLK3 was 25 nM; on MLK1, 19 nM.
